Reference: patent US12678518B2, “Theranostic probe and its use for targeting and/or labeling the EGFR kinase and/or the cells expressing EGFR or its family members” (Tianjin University, priority 2019, dated 2026)

Molecular target: T1, EGFR L834R (Homo sapiens, UniProt P00533, L858R)
T1 construct: plasmids encoding human EGFR (1-988) and split YFP fragments; expressed in transfected cells; host or cells: HEK 293T
Assay: Flowcytometry of PDCy3 binding to cells expressing EGFR L834R mutant
Assay type: cell-based
Conditions: L834R mutation, 1 μM PDCy3
Description: Cell sorting. Following starvation in EX-Cell 293 Serum-Free Medium for 44 hours, transfected cells were treated with gefitinib, PDCy3, or EGF for 4 hours at 37° C. Then, the cells were washed twice with 500 μl/well ice-cold PBS, and were re-suspended in 400 μl/well PBS. The final cell density was estimated to be 5×10^5˜1×10^6 cells/ml. To detect EGFR expression, 3 μd anti-EGFR 528 antibody (santa cruz biotechnology inc, USA) at 200 μg/ml concentration was added to each well of re-suspended cells. After 30-minute incubation on ice, cells were washed twice with 500 μl/well PBS, and were re-suspended in […]. Then, 0.3 μl FITC-labelled secondary antibody at a concentration of 2 mg/ml was added to each sample. After incubation on ice for 30 minutes, cells were washed three times with PBS, re-suspended in 400 μl/well PBS, and analyzed by flowcytometry using a BD FACS Calibur machine.
Cell sorting. Following starvation in EX-Cell 293 Serum-Free Medium for 44 hours, transfected cells were treated with gefitinib, PDCy3, or EGF for 4 hours at 37° C. Then, the cells were washed twice with 500 μL/well ice-cold PBS, and were re-suspended in 400 μL/well PBS. The final cell density was estimated to be 5×10^5˜1×10^6 cells/mL. […] After incubation on ice for 30 minutes, cells were washed three times with PBS, re-suspended in 400 μL/well PBS, and analyzed by floweytometry using a BD FACS Calibur machine.

## CN1/C(=C/C=C/C2=[N+](CCCCCC(=O)NCCC/C=C/C(=O)Nc3ccc4ncnc(Nc5cccc(Br)c5)c4c3)c3ccc(S(=O)(=O)O)cc3C2(C)C)C(C)(C)c2cc(S(=O)(=O)[O-])ccc21 [PDCy3, 1-(6-((E)-6-(4-(3-bromophenylamino)quinazolin-6-ylamino)-6-oxohex-4-enylamino)-6-oxohexyl)-3,3-dimethyl-2-((1E,3E)-3-(1,3,3-trimethyl-5-sulfonatoindolin-2-ylidene)prop-1-enyl)-3H-indolium-5-sulfonate]
  population (fraction) of PDCy3-bound, EGFR positive cells: 65.9%
